From publication PMC12521909, “Camizestrant in Combination with Three Globally Approved CDK4/6 Inhibitors in Women with ER+, HER2− Advanced Breast Cancer: Results from SERENA-1” (Clinical Cancer Research, 2025)

Legend:
[1] = test system: women with ER+, HER2− advanced breast cancer; test: Digital, centrally read triplicate ECGs (resting heart rate, QTcF); parameters: species or system human; details: in vivo
Excerpt: Digital, centrally read, triplicate ECGs were obtained throughout the study.

[2] = Plasma pharmacokinetics by validated LC/MS-MS (cycle 1, day 15); type: in vivo; details: human, oral; for AUC / Cmax: Cycle 1 Day 15, geomean; for Tmax: Cycle 1 Day 15, median
Protocol: Details of safety and efficacy assessments and of ctDNA sampling and assessments have been described previously ([37]). For PK analyses, plasma concentrations of camizestrant, abemaciclib, palbociclib, and ribociclib were determined using validated LC/MS-MS.
Details of assessments and analysis sets have been described previously ([38]). Briefly, safety was assessed in the safety analysis set, and efficacy and antitumor activity were assessed in the evaluable-for-response set. PK was assessed in the PK analysis set, which included all patients who provided at least one quantifiable postdose PK concentration for either camizestrant or any of the other agents evaluated.

[3] = 75 mg, camizestrant 75 mg monotherapy
[4] = 150 mg, camizestrant 150 mg monotherapy
[5] = 300 mg, camizestrant 300 mg monotherapy
[6] = camizestrant 75 mg + abemaciclib
[7] = camizestrant 75 mg + palbociclib
[8] = camizestrant 75 mg + ribociclib (400 mg)
[9] = camizestrant 75 mg + ribociclib (600 mg)
[10] = camizestrant 150 mg + abemaciclib
[11] = camizestrant 150 mg + palbociclib
[12] = camizestrant 300 mg + palbociclib

AUC [2, 3]: 862 ng·h/mL
Cmax [2, 3]: 64.7 ng/mL
Tmax [2, 3]: 3.72 h
AUC [2, 4]: 2160 ng·h/mL
Cmax [2, 4]: 166 ng/mL
Tmax [2, 4]: 2.17 h
AUC [2, 5]: 4780 ng·h/mL
Cmax [2, 5]: 376 ng/mL
Tmax [2, 5]: 3 h
half-life ([2]; across combinations, PK sampled up to 24 hours, likely underestimated, read-out: Estimated half-life of camizestrant): 9.5 to 17 h
AUC [2, 6]: 1120 ng·h/mL
Cmax [2, 6]: 85.4 ng/mL
Tmax [2, 6]: 4 h
AUC [2, 7]: 1200 ng·h/mL
Cmax [2, 7]: 93.9 ng/mL
Tmax [2, 7]: 4 h
AUC [2, 8]: 2280 ng·h/mL
Cmax [2, 8]: 154 ng/mL
Tmax [2, 8]: 3.6 h
AUC [2, 9]: 2750 ng·h/mL
Cmax [2, 9]: 179 ng/mL
Tmax [2, 9]: 4 h
AUC [2, 10]: 2050 ng·h/mL
Cmax [2, 10]: 159 ng/mL
Tmax [2, 10]: 4 h
AUC [2, 11]: 2420 ng·h/mL
Cmax [2, 11]: 189 ng/mL
Tmax [2, 11]: 3.92 h
AUC [2, 12]: 4940 ng·h/mL
Cmax [2, 12]: 386 ng/mL
Tmax [2, 12]: 4 h
Structure (SMILES): C[C@@H]1Cc2c(ccc3[nH]ncc23)[C@@H](c2ccc(NC3CN(CCCF)C3)cn2)N1CC(F)(F)F [camizestrant]
Time of gradual decrease in resting HR to stable nadir [1]: approximately 14 days
